Reference: patent US20150094474A1, “AGRICULTURAL CHEMICALS” (Redx Pharma Ltd., priority 2012, published 2015)

Columns and labels:
peas = experiment: Herbicidal bioassay, peas (% necrosis); type: in vivo
Method in brief: (§1)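 Scoring of % necrosis followed EPPO guideline PP1/135 at specified growth intervals, five replicates per species and treatment. Plants at the 2-4 true leaf stage received Potter-tower sprays of DMSO-diluted compounds across six levels from 0.0001% to 0.05%, with water and DMSO controls.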

barley = experiment: Herbicidal bioassay, barley (% necrosis); type: in vivo
Method in brief: as §1

SMILES: COc1cc(OC)nc(NC(=O)NS(=O)(=O)c2cc(CNS(C)(=O)=O)ccc2CO)n1 [Compound 8, 1-(4,6-Dimethoxypyrimidin-2-yl)-3-[2-(hydroxymethyl)-5-(methanesulfonamidomethyl)phenyl]sulfonyl-urea]
- Sum of % necrosis in Pea (peas; Dose 0.000001, Day 0): C (less than 50% necrosis)
- Sum of % necrosis in Pea (peas; Dose 0.000001, Day 1): C (less than 50% necrosis)
- Sum of % necrosis in Pea (peas; Dose 0.000001, Day 3): B (50%-80% necrosis)
- Sum of % necrosis in Pea (peas; Dose 0.000001, Day 7): A (over 80% necrosis)
- Sum of % necrosis in Pea (peas; Dose 0.000001, Day 10): A (over 80% necrosis)
- Sum of % necrosis in Pea (peas; Dose 0.000001, Day 14): A (over 80% necrosis)
- Sum of % necrosis in Pea (peas; Dose 0.000005, Day 0): C (less than 50% necrosis)
- Sum of % necrosis in Pea (peas; Dose 0.000005, Day 1): C (less than 50% necrosis)
- Sum of % necrosis in Pea (peas; Dose 0.000005, Day 3): B (50%-80% necrosis)
- Sum of % necrosis in Pea (peas; Dose 0.000005, Day 7): B (50%-80% necrosis)
- Sum of % necrosis in Pea (peas; Dose 0.000005, Day 10): A (over 80% necrosis)
- Sum of % necrosis in Pea (peas; Dose 0.000005, Day 14): A (over 80% necrosis)
- Sum of % necrosis in Pea (peas; Dose 0.00001, Day 0): C (less than 50% necrosis)
- Sum of % necrosis in Pea (peas; Dose 0.00001, Day 1): C (less than 50% necrosis)
- Sum of % necrosis in Pea (peas; Dose 0.00001, Day 3): B (50%-80% necrosis)
- Sum of % necrosis in Pea (peas; Dose 0.00001, Day 7): A (over 80% necrosis)
- Sum of % necrosis in Pea (peas; Dose 0.00001, Day 10): A (over 80% necrosis)
- Sum of % necrosis in Pea (peas; Dose 0.00001, Day 14): A (over 80% necrosis)
- Sum of % necrosis in Pea (peas; Dose 0.00005, Day 0): C (less than 50% necrosis)
- Sum of % necrosis in Pea (peas; Dose 0.00005, Day 1): C (less than 50% necrosis)
- Sum of % necrosis in Pea (peas; Dose 0.00005, Day 3): B (50%-80% necrosis)
- Sum of % necrosis in Pea (peas; Dose 0.00005, Day 7): A (over 80% necrosis)
- Sum of % necrosis in Pea (peas; Dose 0.00005, Day 10): A (over 80% necrosis)
- Sum of % necrosis in Pea (peas; Dose 0.00005, Day 14): A (over 80% necrosis)
- Sum of % necrosis in Pea (peas; Dose 0.0001, Day 0): C (less than 50% necrosis)
- Sum of % necrosis in Pea (peas; Dose 0.0001, Day 1): C (less than 50% necrosis)
- Sum of % necrosis in Pea (peas; Dose 0.0001, Day 3): B (50%-80% necrosis)
- Sum of % necrosis in Pea (peas; Dose 0.0001, Day 7): A (over 80% necrosis)
- Sum of % necrosis in Pea (peas; Dose 0.0001, Day 10): A (over 80% necrosis)
- Sum of % necrosis in Pea (peas; Dose 0.0001, Day 14): A (over 80% necrosis)
- Sum of % necrosis in Pea (peas; Dose 0.0005, Day 0): C (less than 50% necrosis)
- Sum of % necrosis in Pea (peas; Dose 0.0005, Day 1): C (less than 50% necrosis)
- Sum of % necrosis in Pea (peas; Dose 0.0005, Day 3): B (50%-80% necrosis)
- Sum of % necrosis in Pea (peas; Dose 0.0005, Day 7): A (over 80% necrosis)
- Sum of % necrosis in Pea (peas; Dose 0.0005, Day 10): A (over 80% necrosis)
- Sum of % necrosis in Pea (peas; Dose 0.0005, Day 14): A (over 80% necrosis)
- Sum of % necrosis in barley (barley; Dose 0.000001, Day 0): C (less than 50% necrosis)
- Sum of % necrosis in barley (barley; Dose 0.000001, Day 1): C (less than 50% necrosis)
- Sum of % necrosis in barley (barley; Dose 0.000001, Day 3): C (less than 50% necrosis)
- Sum of % necrosis in barley (barley; Dose 0.000001, Day 7): C (less than 50% necrosis)
- Sum of % necrosis in barley (barley; Dose 0.000001, Day 10): C (less than 50% necrosis)
- Sum of % necrosis in barley (barley; Dose 0.000001, Day 14): C (less than 50% necrosis)
- Sum of % necrosis in barley (barley; Dose 0.000005, Day 0): C (less than 50% necrosis)
- Sum of % necrosis in barley (barley; Dose 0.000005, Day 1): C (less than 50% necrosis)
- Sum of % necrosis in barley (barley; Dose 0.000005, Day 3): C (less than 50% necrosis)
- Sum of % necrosis in barley (barley; Dose 0.000005, Day 7): C (less than 50% necrosis)
- Sum of % necrosis in barley (barley; Dose 0.000005, Day 10): C (less than 50% necrosis)
- Sum of % necrosis in barley (barley; Dose 0.000005, Day 14): C (less than 50% necrosis)
- Sum of % necrosis in barley (barley; Dose 0.00001, Day 0): C (less than 50% necrosis)
- Sum of % necrosis in barley (barley; Dose 0.00001, Day 1): C (less than 50% necrosis)
- Sum of % necrosis in barley (barley; Dose 0.00001, Day 3): C (less than 50% necrosis)
- Sum of % necrosis in barley (barley; Dose 0.00001, Day 7): C (less than 50% necrosis)
- Sum of % necrosis in barley (barley; Dose 0.00001, Day 10): C (less than 50% necrosis)
- Sum of % necrosis in barley (barley; Dose 0.00001, Day 14): C (less than 50% necrosis)
- Sum of % necrosis in barley (barley; Dose 0.00005, Day 0): C (less than 50% necrosis)
- Sum of % necrosis in barley (barley; Dose 0.00005, Day 1): C (less than 50% necrosis)
- Sum of % necrosis in barley (barley; Dose 0.00005, Day 3): C (less than 50% necrosis)
- Sum of % necrosis in barley (barley; Dose 0.00005, Day 7): C (less than 50% necrosis)
- Sum of % necrosis in barley (barley; Dose 0.00005, Day 10): C (less than 50% necrosis)
- Sum of % necrosis in barley (barley; Dose 0.00005, Day 14): C (less than 50% necrosis)
- Sum of % necrosis in barley (barley; Dose 0.0001, Day 0): C (less than 50% necrosis)
- Sum of % necrosis in barley (barley; Dose 0.0001, Day 1): C (less than 50% necrosis)
- Sum of % necrosis in barley (barley; Dose 0.0001, Day 3): C (less than 50% necrosis)
- Sum of % necrosis in barley (barley; Dose 0.0001, Day 7): C (less than 50% necrosis)
- Sum of % necrosis in barley (barley; Dose 0.0001, Day 10): C (less than 50% necrosis)
- Sum of % necrosis in barley (barley; Dose 0.0001, Day 14): C (less than 50% necrosis)
- Sum of % necrosis in barley (barley; Dose 0.0005, Day 0): C (less than 50% necrosis)
- Sum of % necrosis in barley (barley; Dose 0.0005, Day 1): C (less than 50% necrosis)
- Sum of % necrosis in barley (barley; Dose 0.0005, Day 3): C (less than 50% necrosis)
- Sum of % necrosis in barley (barley; Dose 0.0005, Day 7): C (less than 50% necrosis)
- Sum of % necrosis in barley (barley; Dose 0.0005, Day 10): C (less than 50% necrosis)
- Sum of % necrosis in barley (barley; Dose 0.0005, Day 14): C (less than 50% necrosis)
